Read-outs that look alike come from different tables or passages of the source.
Tests used:
murine splenocyte = murine splenocyte assay for immunosuppressive activity; type: cell-based; conditions: mouse splenocyte assay, methods of Example 2.5, read-out: Splenocyte IC50
Method: 3. Conventional murine splenocyte assay for immunosuppressive activity.
(§1) A diverse group of C7-modified 28-epirapalogs were prepared as described in Example 4.

[1] = target: T1, transcriptional switch components containing FKBP and 2098L mutant FRB domains (Homo sapiens, UniProt P42345+P62942); assay: transcription assay in engineered HD1080 cells expressing SEAP (txn 2098L); type: cell-based
T1 construct: transcriptional switchcomponents containing FKBP and 2098L mutant FRB domains, respectively; fused on or other part: The two switch components are separate chimeric proteins; Neither is given for this cell line
Outline: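 HT1080-type engineered HD1080 cells constitutively express FKBP and 2098L-mutant FRB switch components and express SEAP upon compound-induced multimerization. Compound added to medium; secreted SEAP reporter measured after incubation. EC50 derived.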

FKBP = FKBP (Homo sapiens, UniProt P62942); assay: FKBP competitive binding assay based on fluorescence polarization (FP); conditions: competitive FP binding, methods of Example 2.5
Method: A Competitive Binding FP Assay is described in detail in WO99/36553 and WO96/41865. That assay permits the in vitro measurement of an IC50 value for a given compound which reflects its ability to bind to an FKBP-protein in competition with a labeled FKBP ligand, such as, for example, FK506.
as §1

[2] = cellular transcription assay, methods of Example 2.5; read-out: TXN 2098L EC50
[3] = read-out: TXN 2098L EC50; cellular transcription assay, methods of Example 2.5

T1 sequence (P62942 2-108 limits assumed, stated change not applied, other chains not shown): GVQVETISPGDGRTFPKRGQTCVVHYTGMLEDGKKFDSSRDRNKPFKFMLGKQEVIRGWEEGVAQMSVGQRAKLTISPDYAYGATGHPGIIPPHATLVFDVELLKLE
FKBP, sequence (P62942 whole entry): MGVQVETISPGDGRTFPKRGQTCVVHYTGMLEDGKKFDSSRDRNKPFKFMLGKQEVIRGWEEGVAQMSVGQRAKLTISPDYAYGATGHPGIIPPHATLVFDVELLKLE

Compound | IC50 (murine splenocyte; Mus musculus, Splenocyte) [nM] | EC50 [1, 2] [nM] | TXN 2098L peak relative to rapamycin peak ([1]; superscript mark on EC50 cell) | IC50 (FKBP; read-out: FKBP IC50) [nM] | IC50 (murine splenocyte) [nM] | EC50 [1, 3] [nM] | IC50 (FKBP; FKBP IC50 (nM)) [nM]
CO[C@@H]1C[C@H](C[C@@H](C)[C@@H]2CC(=O)[C@H](C)/C=C(\C)[C@H](O)[C@@H](OC)C(=O)[C@H](C)C[C@H](C)/C=C/C=C/C=C(\C)[C@@H](N(C)S(C)(=O)=O)C[C@@H]3CC[C@@H](C)[C@@](O)(O3)C(=O)C(=O)N3CCCC[C@H]3C(=O)O2)CC[C@H]1O [28-epi-7S-N-Me-methanesulfonamide] | 140 | 27 | (+) (peak was >125% rapamycin peak) | 21 |  |  | 
CCCS(=O)(=O)N(C)C1CC2CCC(C)C(O)(O2)C(=O)C(=O)N2CCCCC2C(=O)OC(C(C)CC2CCC(O)C(OC)C2)CC(=O)C(C)C=C(C)C(O)C(OC)C(=O)C(C)CC(C)C=CC=CC=C1C (single isomer, unassigned) [28-epi-7R-N-Me-propanesulfonamide] |  | 9 |  | 148 | 1370 |  | 
COC1CC(CC(C)C2CC(=O)C(C)C=C(C)C(O)C(OC)C(=O)C(C)CC(C)C=CC=CC=C(C)C(OCc3ccccc3)CC3CCC(C)C(O)(O3)C(=O)C(=O)N3CCCCC3C(=O)O2)CCC1O (single isomer, unassigned) [28-epi-7R-benzyloxy] |  | 14 |  | 9.1 | 313 |  | 
CCOC(=O)N[C@H]1C[C@@H]2CC[C@@H](C)[C@@](O)(O2)C(=O)C(=O)N2CCCC[C@H]2C(=O)O[C@H]([C@H](C)C[C@@H]2CC[C@@H](O)[C@H](OC)C2)CC(=O)[C@H](C)/C=C(\C)[C@H](O)[C@@H](OC)C(=O)[C@H](C)C[C@H](C)/C=C/C=C/C=C/1C [28-epi-7S-ethylcarbamate] | > 5000 |  |  |  |  | 10 | 13
COC1CC(CC(C)C2CC(=O)C(C)C=C(C)C(O)C(OC)C(=O)C(C)CC(C)C=CC=CC=C(C)C(NC(=O)OCc3ccccc3)CC3CCC(C)C(O)(O3)C(=O)C(=O)N3CCCCC3C(=O)O2)CCC1O (stereo not drawn) [28-epi-7R-benzylcarbamate] |  | 9 | (+) (peak was >125% rapamycin peak) | 12 | 2260 |  | 
28-epi-7S-dimethylthiophene |  | 30 |  | 78 | 1240 to 1540 |  | 
COC1CC(CC(C)C2CC(=O)C(C)C=C(C)C(O)C(OC)C(=O)C(C)CC(C)C=CC=CC=C(C)C(OCc3ccccc3)CC3CCC(C)C(O)(O3)C(=O)C(=O)N3CCCCC3C(=O)O2)CCC1O (single isomer, unassigned) [28-epi-7S-benzyloxy] |  | 18 |  | 70 | 93 |  | 
C=CCO[C@H]1C[C@@H]2CC[C@@H](C)[C@@](O)(O2)C(=O)C(=O)N2CCCC[C@H]2C(=O)O[C@H]([C@H](C)C[C@@H]2CC[C@@H](O)[C@H](OC)C2)CC(=O)[C@H](C)/C=C(\C)[C@H](O)[C@@H](OC)C(=O)[C@H](C)C[C@H](C)/C=C/C=C/C=C/1C [28-epi-7S-allyloxy] | 1800 |  |  |  |  | 8 | 18
28-epi-7S-(3′-methyl)-but-4′-enyloxy |  | 16 |  | 27 | 718 |  | 
COC1CC(CC(C)C2CC(=O)C(C)C=C(C)C(O)C(OC)C(=O)C(C)CC(C)C=CC=CC=C(C)C(c3ccc(C)s3)CC3CCC(C)C(O)(O3)C(=O)C(=O)N3CCCCC3C(=O)O2)CCC1O (stereo not drawn) [28-epi-7S-methylthiophene] |  | 25 |  | 86 | 170 to 242 |  | 
COC1CC(CC(C)C2CC(=O)C(C)C=C(C)C(O)C(OC)C(=O)C(C)CC(C)C=CC=CC=C(C)C(NC(=O)Oc3ccccc3)CC3CCC(C)C(O)(O3)C(=O)C(=O)N3CCCCC3C(=O)O2)CCC1O (stereo not drawn) [28-epi-7R-phenylcarbamate] |  | 10 | (+) (peak was >125% rapamycin peak) | 9 | > 5000 |  | 
COC1CC(CC(C)C2CC(=O)C(C)C=C(C)C(O)C(OC)C(=O)C(C)CC(C)C=CC=CC=C(C)C(NS(=O)(=O)N(C)C)CC3CCC(C)C(O)(O3)C(=O)C(=O)N3CCCCC3C(=O)O2)CCC1O (stereo not drawn) [28-epi-7S-dimethylsulfamide] |  | 20 | (+) (peak was >125% rapamycin peak) | 13 | 879 |  | 
CCCCS(=O)(=O)N[C@H]1C[C@@H]2CC[C@@H](C)[C@@](O)(O2)C(=O)C(=O)N2CCCC[C@H]2C(=O)O[C@H]([C@H](C)C[C@@H]2CC[C@@H](O)[C@H](OC)C2)CC(=O)[C@H](C)/C=C(\C)[C@H](O)[C@@H](OC)C(=O)[C@H](C)C[C@H](C)/C=C/C=C/C=C/1C [28-epi-7S-butanesulfonamide] | 152 | 11 | (+) (peak was >125% rapamycin peak) | 9.2 |  |  | 

— patent US7196192B2, “28-epirapalogs” (Ariad Gene Therapeutics, Inc., priority 1999, dated 2007)
